Assay results as given in PubChem BioAssay (NCI).
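1) Cells in 96-well plates. 2) Compound, 48 h, 5 concentrations. 3) Linear interpolation between surrounding doses. 4) Unreached endpoint = highest concentration. TGI denotes the concentration required for complete inhibition of growth.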

Columns and labels:
Experiment in all cases: NCI anticancer screen, dose series, 48 h
HCC-2998 colon = tested on: HCC-2998 colon
DU-145 prostate = tested on: DU-145 prostate
NCI-H460 lung = tested on: NCI-H460 lung
NCI-H23 lung = tested on: NCI-H23 lung
A498 renal = tested on: A498 renal
MCF7 breast = tested on: MCF7 breast
HOP-62 NSCLC = tested on: HOP-62 NSCLC
OVCAR-3 ovarian = tested on: OVCAR-3 ovarian
OVCAR-8 ovarian = tested on: OVCAR-8 ovarian
TK-10 renal = tested on: TK-10 renal

| Structure (SMILES) | TGI (HCC-2998 colon) [µM] | TGI (DU-145 prostate) [µM] | TGI (NCI-H460 lung) [µM] | TGI (NCI-H23 lung) [µM] | TGI (A498 renal) [µM] | TGI (MCF7 breast) [µM] | TGI (HOP-62 NSCLC) [µM] | TGI (OVCAR-3 ovarian) [µM] | TGI (OVCAR-8 ovarian) [µM] | TGI (TK-10 renal) [µM] |
| --- | --- | --- | --- | --- | --- | --- | --- | --- | --- | --- |
| Cc1cccc(Nc2cn(CCOc3ccccc3)c(=O)[nH]c2=O)c1 | 91.6 | > 100 | > 100 | > 100 | > 100 | > 100 | > 100 | 52.8 | – | – |
| COc1cc(/C=C\c2ccc(SC)cc2)cc(OC)c1OC | 2.17 | > 100 | > 49.3 | 0.408 | > 54.1 | > 100 | > 76.3 | 57.8 | > 41 | > 100 |
| CC(=O)NC1C(OCC(=O)NC(C)C(=O)NC(CCC(=O)NCCCCCNc2ccc([N+](=O)[O-])c3[nH]c4ccccc4c(=O)c23)C(N)=O)C(O)C(CO)OC1(C)OCc1ccccc1 (stereo not drawn) | > 50 | > 50 | > 50 | > 50 | > 50 | > 50 | > 50 | > 50 | > 50 | > 50 |
| CCOc1ccc(N=NC2C(=O)N(C(=O)CC(=O)Nc3ccc(Cl)cc3)N=C2C)cc1 (stereo not drawn) | > 100 | > 100 | > 100 | > 100 | > 100 | > 100 | > 100 | > 100 | > 100 | > 100 |
| CCN(CC)P1(=S)Oc2ccc3ccccc3c2-c2c(ccc3ccccc23)O1 | > 100 | > 100 | > 100 | > 100 | > 100 | > 100 | > 100 | > 100 | > 100 | > 100 |
| CCOC(=O)C1(C(=O)OCC)C[C@H]2CON=C2[C@@H]1c1ccc(C(F)(F)F)cc1 | 87.4 | > 100 | > 100 | > 100 | 99.3 | > 100 | 64.9 | > 100 | > 100 | > 100 |
| COc1ccc2cc(C(=O)NCCc3ccccc3)ccc2c1OC | > 100 | > 100 | > 100 | > 100 | > 100 | > 100 | 75.3 | > 100 | > 100 | – |
| Cc1cc(SCC(=O)c2ccc(Br)cc2)cc(C)[o+]1 | 75.2 | 68.9 | 76.2 | > 100 | 81.6 | 38.2 | > 100 | 49.8 | > 100 | 87.9 |
| CC1(c2cccc(C3CCC4(C=CC3=O)OCCO4)c2)OCCO1 (stereo not drawn) | 33.1 | 31.8 | 30.6 | 24 | 33.5 | 25.9 | 47.9 | 13 | 30.9 | 20.3 |
| c1ccc(COc2nc3ccc(C45CC6CC(CC(C6)C4)C5)cc3[nH]2)cc1 | 56.4 | > 100 | > 71.3 | > 56.6 | > 100 | > 100 | > 74.8 | > 100 | > 100 | > 72.5 |
| COC(=O)c1nc2c(C)c(O)c(O)c([C@H](C)CCC=C(C)C)c2o1 | 96.2 | > 100 | > 100 | 89.8 | 39 | > 100 | 67.7 | > 100 | > 100 | > 100 |
| COc1ccc(N(C(=O)OC(C)(C)C)[C@@H]2C(C)=C[C@H]([S@@](=O)c3ccc(C)cc3)[C@@H]3C(=O)N(C)C(=O)[C@@H]32)cc1 | – | 81.8 | > 100 | 45.7 | 29.3 | 62.1 | 64.2 | 80.8 | 46.7 | 43.4 |
| Nc1nc(Cl)cc(NCC2(CO)CC(CCCCc3ccccc3)C2)n1 (stereo not drawn) | > 100 | > 100 | > 100 | > 100 | > 100 | > 100 | > 100 | > 100 | > 100 | > 100 |
| COc1ccc2c(c1)CCC(CN1CCN(CCOC(c3ccc(F)cc3)c3ccc(F)cc3)CC1)=C2 | 19 | 49.2 | 34.2 | 38.2 | 48.1 | 71.9 | > 100 | 50.6 | 63.2 | 44.4 |
| CC(C)C[C@H](NC(=O)[C@@H](Cc1cccc2ccccc12)NC(=O)N1CCOCC1)B(O)O | 4.47 | 29.7 | 40.6 | 8.94 | 18.1 | > 52.7 | 33.3 | 6.69 | 44.9 | 25.4 |
| C[N+](C)(C)CCCCCc1c2nc(c(CCCCC[N+](C)(C)C)c3ccc([nH]3)c(CCCCC[N+](C)(C)C)c3ccc([nH]3)c(CCCCC[N+](C)(C)C)c3nc1C=C3)C=C2 | > 100 | > 100 | > 100 | > 100 | > 100 | > 100 | > 100 | > 100 | > 100 | > 100 |
| CC(C)(C)[Si](C)(C)OCC1OC(n2ccc(=O)[nH]c2=O)C(O[Si](C)(C)C(C)(C)C)/C1=N/O (stereo not drawn) | 14.8 | 28.5 | 12.5 | 14.8 | 16.5 | 27.7 | 17 | > 100 | 13.9 | 20.9 |
| Cc1[nH]n(C(=O)c2ccccc2O)c(=O)c1/C=C1\C(=O)C=Cc2ccccc21 | > 71.7 | 48.6 | 9.94 | 9.99 | 11.2 | 15.1 | 6.64 | 1.2 | 28.5 | > 100 |
| CC1(C)OC1CC/C(=C/CBr)CBr (stereo not drawn) | 29.8 | 55.6 | 29 | 29.6 | 47.9 | 28.5 | 31.6 | 33.7 | – | 32.5 |
| c1ccc(/C(=N/Nc2cnccn2)c2ncccn2)cc1 | > 100 | > 100 | > 100 | > 100 | – | > 100 | > 100 | > 100 | > 100 | – |
